Results reported in US8278441B2, “BACE inhibitors” (Eli Lilly and Company, priority 2009, dated 2012).
Where a name gives a salt, the structure may show the parent alone. Read-outs that look alike come from different tables or passages of the source.

Columns and labels:
human BACE1(1-460):Fc = target: T1, human BACE1(1-460):Fc (Homo sapiens, UniProt P56817); test: BACE1 FRET assay; format: biochemical; settings: purified recombinant human BACE1(1-460):Fc, FRET substrate, pH 4.6
T1 construct: made in house; host or cells: HEK293 cells, transient transfection; purified from conditioned media by Protein A chromatography

[1] = target: T2, native, endogenous murine BACE1 in PDAPP primary cortical neurons (Mus musculus, UniProt P56818); test: PDAPP primary neuronal assay (Abeta ELISA); format: cell-based; settings: primary cortical neurons from PDAPP embryos, 24 h
T2 construct: endogenous in cells; host or cells: primary cortical neurons from Embryonic Day 16 PDAPP transgenic mouse embryos

[2] = target: T3, native endogenous human BACE1 in HEK293/APP751sw cells (Homo sapiens, UniProt P56817); test: HEK293Swe whole cell assay (Abeta ELISA); format: cell-based
T3 construct: endogenous in cells; host or cells: HEK293p (ATCC CRL-1573) stably expressing APP751sw

beta-secretase = test: In vivo inhibition of beta-secretase in PDAPP mice; settings: 3 hours; for Abeta 1-x peptide level reduction in brain cortex / C99 level reduction in brain cortex / sAPPb level reduction in brain cortex: young female PDAPP mice, vs vehicle-treated mice
From the text: Several animal models, including mouse, guinea pig, dog, and monkey, may be used to screen for inhibition of beta-secretase activity in vivo following compound treatment. Animals used in this invention can be wild type, transgenic, or gene knockout animals. For example, the PDAPP mouse model, prepared as described in Games et al., Nature 373, 523-527 (1995), and other non-transgenic or gene knockout animals are useful to analyze in vivo inhibition of Abeta and sAPPbeta production in the presence of inhibitory compounds. Generally, 2 to 12 month old PDAPP mice, gene knockout mice or non-transgenic animals are administered compound formulated in vehicles, such as corn oil, cyclodextran, phosphate buffers, PHARMASOLVE®, or other suitable vehicles. One to twenty-four hours following the administration of compound, animals are sacrificed, and brains as well as cerebrospinal fluid and plasma are removed for analysis of Abetas, C99, and sAPP fragments. (See Dovey, et al., Journal of Neurochemistry, 76, 173-181 (2001); and Johnson-Wood, et al., Proc. Natl. Acad. Sci. USA, 94, 1550-1555 (1997)).
For standard in vivo pharmacology studies, animals are dosed with various concentrations of compound and compared to a vehicle-treated control group dosed at the same time. For some time course studies, brain tissue, plasma, or cerebrospinal fluid is obtained from selected animals, beginning at time 0 to establish a baseline. Compound is administered to other groups and sacrificed at various times after dosing. Brain tissue, plasma, or cerebrospinal fluid is obtained from selected animals and analyzed for the presence of APP cleavage products, including Abeta peptides, sAPPbeta, and other APP fragments, for example, by specific sandwich ELISA assays. At the end of the test period, animals are sacrificed and brain tissues, plasma, or cerebrospinal fluid are analyzed for the presence of Abeta peptides, C99, and sAPPbeta, as appropriate. Brain tissues of APP transgenic animals are also analyzed for the amount of beta-amyloid plaques following compound treatment.

[3] = Abeta 1-40, read-out: PDAPP Neuron A-beta (1-40) ELISA IC50
[4] = Abeta 1-42, read-out: PDAPP Neuron A-beta (1-42) ELISA IC50
[5] = Abeta 1-40 in conditioned media, read-out: HEK 293 Swe A-beta (1-40) ELISA IC50
[6] = Abeta 1-42 in conditioned media, read-out: HEK 293 Swe A-beta (1-42) ELISA IC50

T2 sequence (P56818 46-501): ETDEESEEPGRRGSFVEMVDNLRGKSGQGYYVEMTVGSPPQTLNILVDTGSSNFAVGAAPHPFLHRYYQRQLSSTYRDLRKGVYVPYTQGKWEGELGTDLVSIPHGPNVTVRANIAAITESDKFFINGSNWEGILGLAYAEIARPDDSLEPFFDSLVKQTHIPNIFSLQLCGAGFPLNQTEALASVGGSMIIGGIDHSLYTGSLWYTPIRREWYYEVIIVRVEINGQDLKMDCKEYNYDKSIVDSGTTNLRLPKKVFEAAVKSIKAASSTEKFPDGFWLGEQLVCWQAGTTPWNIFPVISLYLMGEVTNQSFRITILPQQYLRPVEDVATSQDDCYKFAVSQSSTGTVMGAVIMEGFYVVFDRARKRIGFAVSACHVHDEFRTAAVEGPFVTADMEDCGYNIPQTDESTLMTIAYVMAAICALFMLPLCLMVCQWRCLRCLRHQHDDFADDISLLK
T1 sequence (P56817 22-460): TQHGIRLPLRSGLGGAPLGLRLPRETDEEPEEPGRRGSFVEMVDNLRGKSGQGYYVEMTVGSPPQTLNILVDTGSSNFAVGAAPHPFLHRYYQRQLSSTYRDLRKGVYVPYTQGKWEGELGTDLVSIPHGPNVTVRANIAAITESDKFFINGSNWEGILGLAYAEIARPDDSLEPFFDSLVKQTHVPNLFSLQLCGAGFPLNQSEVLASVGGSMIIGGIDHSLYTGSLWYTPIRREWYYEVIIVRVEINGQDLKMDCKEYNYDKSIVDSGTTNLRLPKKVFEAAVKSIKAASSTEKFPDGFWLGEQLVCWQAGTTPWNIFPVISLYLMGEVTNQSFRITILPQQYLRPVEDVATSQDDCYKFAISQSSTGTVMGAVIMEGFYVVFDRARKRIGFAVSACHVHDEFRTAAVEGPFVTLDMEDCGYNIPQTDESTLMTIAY
T3 sequence (P56817 46-501): as the sequence (P56818 46-501) above, with S6P, I162V, I165L, T180S, A182V, V340I, A393L, H443Q counted along it

Row | SMILES | IC50 (human BACE1(1-460):Fc) [nM] | IC50 [1, 3] [nM] | IC50 [1, 4] [nM] | IC50 [2, 5] [nM] | IC50 [2, 6] [nM] | CSF Abeta 1-42 level reduction (beta-secretase; CSF, 10 mg/kg oral) | CSF Abeta 1-x level reduction (beta-secretase; CSF, 10 mg/kg oral) | CSF sAPPalpha levels (beta-secretase; CSF, 10 mg/kg oral) | CSF sAPPbeta level reduction (beta-secretase; CSF, 10 mg/kg oral) [%] | Abeta 1-x peptide level reduction in brain cortex (beta-secretase; 10 mg/kg oral) | C99 level reduction in brain cortex (beta-secretase; 10 mg/kg oral) [%] | sAPPb level reduction in brain cortex (beta-secretase; 10 mg/kg oral) [%] | Abeta 1-x peptide level reduction in brain cortex (beta-secretase; 10 mg/kg subcutaneous) | C99 level reduction in brain cortex (beta-secretase; 10 mg/kg subcutaneous) [%] | sAPPb level reduction in brain cortex (beta-secretase; 10 mg/kg subcutaneous) [%]
1 | NC1=N[C@@]2(c3cccc(-c4cncnc4)c3)CCCC[C@H]2CS1 [Example 25, (8aS)-8a-(3-(Pyrimidin-5-yl)phenyl)-4a,5,6,7,8,8a-hexahydro-4H-benzo[d][1,3]thiazin-2-amine dihydrochloride] | 731 | 734 | 659 | 1360 | 1150 | – | – | – | – | – | – | – | – | – | –
2 | NC1=N[C@@]2(c3cc(NC(=O)c4nccs4)ccc3F)CCOC[C@H]2CS1 [Example 8, N-(3-((8aS)-2-Amino-4,4a,5,7,8,8a-hexahydropyrano[4,3-d][1,3]thiazin-8a-yl)-4-fluorophenyl)thiazole-2-carboxamide hydrochloride] | 179 | 32.8 | 41.3 | 78 | 89.6 | – | – | – | – | – | – | – | – | – | –
3 | NC1=N[C@@]2(c3cccc(-c4cncnc4)c3)C[C@H](O)C[C@H]2CS1 (racemic) [Example 32, Racemic (4aRS,6RS,7aSR)-2-Amino-7a-(3-(pyrimidin-5-yl)phenyl)-4,4a,5,6,7,7a-hexahydrocyclopenta[d][1,3]thiazin-6-ol dihydrochloride] | 346 | 436 | 352 | 670 | 173 | – | – | – | – | – | – | – | – | – | –
4 | Cl.NC1=N[C@@]2(c3cc(NC(=O)c4ccc(F)cn4)ccc3F)COC[C@H]2CS1 [Example 1, N-(3-((4aS,7aS)-2-Amino-4a,5,7,7a-tetrahydro-4H-furo[3,4-d][1,3]thiazin-7a-yl)-4-fluorophenyl)-5-fluoropicolinamide hydrochloride] | – | – | – | – | – | approximately 62% | approximately 62% | unchanged | 22 | approximately 54% | ~34 | ~42 | approximately 64% | ~60 | ~44
